# Reference: patent publication US8575163B2, “Pyrrolopyridinylpyrimidin-2-ylamine derivatives” (Merck Patent GmbH, priority 2009, dated 2013)
# Molecular target: T1, PDK1 (Homo sapiens, UniProt O15530)
# T1 construct: His6 (N)
# T1 sequence (O15530 51-556 limits assumed): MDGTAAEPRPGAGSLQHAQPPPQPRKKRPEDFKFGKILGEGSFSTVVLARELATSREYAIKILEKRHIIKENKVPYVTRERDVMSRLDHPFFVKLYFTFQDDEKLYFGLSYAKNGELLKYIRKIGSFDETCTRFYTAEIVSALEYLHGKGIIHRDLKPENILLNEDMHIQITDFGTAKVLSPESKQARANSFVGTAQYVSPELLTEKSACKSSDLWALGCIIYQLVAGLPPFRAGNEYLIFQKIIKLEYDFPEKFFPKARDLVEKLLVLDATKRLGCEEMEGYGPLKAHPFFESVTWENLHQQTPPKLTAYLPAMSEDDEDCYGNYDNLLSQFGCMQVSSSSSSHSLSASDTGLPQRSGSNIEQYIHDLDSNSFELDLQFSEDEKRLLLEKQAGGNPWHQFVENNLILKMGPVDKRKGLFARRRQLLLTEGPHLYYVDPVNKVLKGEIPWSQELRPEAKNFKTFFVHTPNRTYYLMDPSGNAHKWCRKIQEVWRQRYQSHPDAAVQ
# Assay: Test for the inhibition of PDK1 (flashplate, 33P-ATP)
# Assay type: biochemical
# Conditions: His6-PDK1 3.4 nM, 4 μM ATP, 30° C., 60 min
# Experimental: The experimental batches are carried out in a flashplate system with 384 wells/microtitration plate.
# In each case, the PDK1 sample His6-PDK1(1-50)(3.4 nM), the PDK1 substrate biotin-bA-bA-[…] (400 nM), 4 μM ATP (with 0.2 μCi of ^33 P-ATP/well) and the test substance in 50 μl of conventional experimental solution per well are incubated at 30° C. for 60 min. The test substances are employed in corresponding concentrations (if desired in a dilution series). The control is carried out without test substance. The reaction is stopped using standard methods and washed. The activity of the kinase is measured via the incorporated radioactivity in top count. In order to determine the non-specific kinase reaction (blank value), the experimental batches are carried out in the presence of 100 nM staurosporin.
# The radioactivity (decompositions per minute) of the blank value (no use of test substance in the presence of staurosporin) is subtracted from all other radioactivity values. The controls (kinase activity without test substance) are set equal to 100 percent and all other radioactivity values (after subtracting the blank value) are expressed set in relation thereto (for example in % of the control).
# [formula] IC50 values (50% inhibition) are determined with the aid of statistics programmes, such as, for example, RS1.
row,SMILES,IC50
1,"CC(O)(c1ccccc1)c1cc(-c2c[nH]c3ncc(-c4cnn(CCC(=O)N5CCOCC5)c4)cc23)nc(N)n1 (stereo not shown) [A68, 3-(4-{3-[2-amino-6-(1-hydroxy-1-phenylethyl)pyrimidin-4-yl]-1H-pyrrolo-[2,3-b]pyridin-5-yl}pyrazol-1-yl)-1-morpholin-4-ylpropan-1-one]",74 nM
2,"COCO[C@@](C)(c1cccc(F)c1)c1cc(-c2c[nH]c3ncc(Br)cc23)nc(N)n1 [A72, 4-(5-bromo-1H-pyrrolo[2,3-b]pyridin-3-yl)-6-[(S)-1-(3-fluorophenyl)-1-methoxymethoxyethyl]pyrimidin-2-ylamine]",950 nM
3,"COCO[C@](C)(c1cccc(F)c1)c1cc(-c2c[nH]c3ncc(Br)cc23)nc(N)n1 [A73, 4-(5-bromo-1H-pyrrolo[2,3-b]pyridin-3-yl)-6-[(R)-1-(3-fluorophenyl)-1-methoxymethoxyethyl]pyrimidin-2-ylamine]",> 30000 nM
4,"COCOC(C)(c1ccccc1)c1cc(-c2c[nH]c3ncc(-c4cnn(CCC(N)=O)c4)cc23)nc(N)n1 (stereo not shown) [A74, 3-(4-{3-[2-amino-6-(1-methoxymethoxy-1-phenylethyl)pyrimidin-4-yl]-1H-pyrrolo[2,3-b]pyridin-5-yl}pyrazol-1-yl)propionamide]",68 nM
5,"CNC(=O)CCn1cc(-c2cnc3[nH]cc(-c4cc(C(C)(OCOC)c5ccccc5)nc(N)n4)c3c2)cn1 (stereo not shown) [A75, 3-(4-{3-[2-amino-6-(1-methoxymethoxy-1-phenylethyl)pyrimidin-4-yl]-1H-pyrrolo[2,3-b]pyridin-5-yl}pyrazol-1-yl)-N-methylpropionamide]",79 nM
6,"CCOC(C)(c1ccccc1)c1cc(-c2c[nH]c3ncc(-c4cnn(C)c4)cc23)nc(N)n1 (stereo not shown) [A76, 4-(1-ethoxy-1-phenylethyl)-6-[5-(1-methyl-1H-pyrazol-4-yl)-1H-pyrrolo-[2,3-b]pyridin-3-yl]pyrimidin-2-ylamine]",79 nM
7,"COCOC(C)(c1ccccc1)c1cc(-c2c[nH]c3ncc(-c4cnn(CCC(=O)O)c4)cc23)nc(N)n1 (stereo not shown) [A77, 3-(4-{3-[2-amino-6-(1-methoxymethoxy-1-phenylethyl)pyrimidin-4-yl]-1H-pyrrolo[2,3-b]pyridin-5-yl}pyrazol-1-yl)propionic acid]",43 nM
8,"CCOC(=O)CCn1cc(-c2cnc3[nH]cc(-c4cc(C(C)(OCOC)c5ccccc5)nc(N)n4)c3c2)cn1 (stereo not shown) [A78, ethyl 3-(4-{3-[2-amino-6-(1-methoxymethoxy-1-phenylethyl)pyrimidin-4-yl]-1H-pyrrolo[2,3-b]pyridin-5-yl}pyrazol-1-yl)propionate]",61 nM
9,"C=C(CF)n1cc(-c2cnc3[nH]cc(-c4cc(C(C)(O)c5ccccc5)nc(N)n4)c3c2)cn1 (stereo not shown) [A79, 1-(2-amino-6-{5-[1-(1-fluoromethylvinyl)-1H-pyrazol-4-yl]-1H-pyrrolo[2,3-b]-pyridin-3-yl}pyrimidin-4-yl)-1-phenylethanol]",68 nM
10,"CC(O)(c1ccccc1)c1cc(-c2c[nH]c3ncc(-c4cnn(C(CF)CF)c4)cc23)nc(N)n1 (stereo not shown) [A80, 1-(2-amino-6-{5-[1-(2-fluoro-1-fluoromethylethyl)-1H-pyrazol-4-yl]-1H-pyrrolo[2,3-b]pyridin-3-yl}pyrimidin-4-yl)-1-phenylethanol]",17 nM
11,"CC(C)C(O)(c1ccccc1)c1cc(-c2c[nH]c3ncc(-c4cnn(C)c4)cc23)nc(N)n1 (stereo not shown) [A82, 1-{2-amino-6-[5-(1-methyl-1H-pyrazol-4-yl)-1H-pyrrolo[2,3-b]pyridin-3-yl]-pyrimidin-4-yl}-2-methyl-1-phenylpropan-1-ol]",78 nM
12,"CC(O)(c1ccccc1)c1cc(-c2c[nH]c3ncc(-c4cnn(CC5CC5)c4)cc23)nc(N)n1 (stereo not shown) [A83, 1-{2-amino-6-[5-(1-cyclopropylmethyl-1H-pyrazol-4-yl)-1H-pyrrolo[2,3-b]-pyridin-3-yl]pyrimidin-4-yl}-1-phenylethanol]",59 nM
13,"Cn1cc(-c2cnc3[nH]cc(-c4cc(C(O)(c5ccccc5)C5CCCC5)nc(N)n4)c3c2)cn1 (stereo not shown) [A85, {2-amino-6-[5-(1-methyl-1H-pyrazol-4-yl)-1H-pyrrolo[2,3-b]pyridin-3-yl]-pyrimidin-4-yl}cyclopentylphenylmethanol]",52 nM
14,"CC(O)(c1ccccc1)c1cc(-c2c[nH]c3ncc(Br)cc23)nc(N)n1 (stereo not shown) [A86, 1-[2-amino-6-(5-bromo-1H-pyrrolo[2,3-b]pyridin-3-yl)pyrimidin-4-yl]-1-phenylethanol]",89 nM
15,"CCCC(C)(O)c1cc(-c2c[nH]c3ncc(-c4cnn(C(C)C)c4)cc23)nc(N)n1 (stereo not shown) [A87, 2-{2-amino-6-[5-(1-isopropyl-1H-pyrazol-4-yl)-1H-pyrrolo[2,3-b]pyridin-3-yl]-pyrimidin-4-yl}pentan-2-ol]",16 nM
16,"CC(C)n1cc(-c2cnc3[nH]cc(-c4cc(C(C)(O)C(C)C)nc(N)n4)c3c2)cn1 (stereo not shown) [A88, 2-{2-amino-6-[5-(1-isopropyl-1H-pyrazol-4-yl)-1H-pyrrolo[2,3-b]pyridin-3-yl]-pyrimidin-4-yl}-3-methylbutan-2-ol]",28 nM
17,"CC(O)(c1ccccc1)c1cc(-c2c[nH]c3ncc(-c4cncnc4)cc23)nc(N)n1 (stereo not shown) [A100, 1-[2-amino-6-(5-pyrimidin-5-yl-1H-pyrrolo[2,3-b]pyridin-3-yl)pyrimidin-4-yl]-1-phenylethanol]",1700 nM
18,"CC(O)(c1ccccc1)c1cc(-c2c[nH]c3ncc(-c4ccnnc4)cc23)nc(N)n1 (stereo not shown) [A101, 1-[2-amino-6-(5-pyridazin-4-yl-1H-pyrrolo[2,3-b]pyridin-3-yl)pyrimidin-4-yl]-1-phenylethanol]",740 nM
19,"COCOC(C)(c1ccnc(C)c1)c1cc(-c2c[nH]c3ncc(-c4cnn(C)c4)cc23)nc(N)n1 (stereo not shown) [A108, 4-[1-methoxymethoxy-1-(2-methylpyridin-4-yl)ethyl]-6-[5-(1-methyl-1H-pyrazol-4-yl)-1H-pyrrolo[2,3-b]pyridin-3-yl]pyrimidin-2-ylamine]",49 nM

# Other lines, results leading:
row,IC50,SMILES
1,48 nM,"COC(=O)CCn1cc(-c2cnc3[nH]cc(-c4cc(C(C)(O)c5ccccc5)nc(N)n4)c3c2)cn1 (stereo not shown) [A70, methyl 3-(4-{3-[2-amino-6-(1-hydroxy-1-phenylethyl)pyrimidin-4-yl]-1H-pyrrolo[2,3-b]pyridin-5-yl}pyrazol-1-yl)propionate]"
2,15 nM,"CC(O)(c1ccccc1)c1cc(-c2c[nH]c3ncc(-c4cnn(CCC(N)=O)c4)cc23)nc(N)n1 (stereo not shown) [A71, 3-(4-{3-[2-amino-6-(1-hydroxy-1-phenylethyl)pyrimidin-4-yl]-1H-pyrrolo-[2,3-b]pyridin-5-yl}pyrazol-1-yl)propionamide]"
3,19 nM,"CC(O)(c1ccccc1)c1cc(-c2c[nH]c3ncc(-c4cnn(CCF)c4)cc23)nc(N)n1 (stereo not shown) [A81, 1-(2-amino-6-{5-[1-(2-fluoroethyl)-1H-pyrazol-4-yl]-1H-pyrrolo[2,3-b]pyridin-3-yl}pyrimidin-4-yl)-1-phenylethanol]"
4,50 nM,"CC(O)(c1ccccc1)c1cc(-c2c[nH]c3ncc(-c4cnn(CC(F)F)c4)cc23)nc(N)n1 (stereo not shown) [A84, 1-(2-amino-6-{5-[1-(2,2-difluoroethyl)-1H-pyrazol-4-yl]-1H-pyrrolo[2,3-b]-pyridin-3-yl}pyrimidin-4-yl)-1-phenylethanol]"
5,19 nM,"Cc1ccccc1C(C)(O)c1cc(-c2c[nH]c3ncc(-c4cnn(CCO)c4)cc23)nc(N)n1 (stereo not shown) [A89, 1-(2-amino-6-{5-[1-(2-hydroxyethyl)-1H-pyrazol-4-yl]-1H-pyrrolo[2,3-b]-pyridin-3-yl}pyrimidin-4-yl)-1-o-tolylethanol]"
6,60 nM,"Cc1cccc(C(C)(O)c2cc(-c3c[nH]c4ncc(-c5cnn(CCO)c5)cc34)nc(N)n2)c1 (stereo not shown) [A94, 1-(2-amino-6-{5-[1-(2-hydroxyethyl)-1H-pyrazol-4-yl]-1H-pyrrolo[2,3-b]-pyridin-3-yl}pyrimidin-4-yl)-1-m-tolylethanol]"
7,18 nM,"CNc1nc(-c2c[nH]c3ncc(-c4cnn(CCO)c4)cc23)cc(C(C)(O)c2ccccc2)n1 (stereo not shown) [A95, 1-(6-{5-[1-(2-hydroxyethyl)-1H-pyrazol-4-yl]-1H-pyrrolo[2,3-b]pyridin-3-yl}-2-methylaminopyrimidin-4-yl)-1-phenylethanol]"
8,12 nM,"CCC(O)(c1ccccc1)c1cc(-c2c[nH]c3ncc(-c4cnn(CCO)c4)cc23)nc(N)n1 (stereo not shown) [A98, 1-(2-amino-6-{5-[1-(2-hydroxyethyl)-1H-pyrazol-4-yl]-1H-pyrrolo[2,3-b]-pyridin-3-yl}pyrimidin-4-yl)-1-phenylpropan-1-ol]"
9,41 nM,"CC(O)(c1ccccc1)c1cc(-c2c[nH]c3ncc(-c4cnn(CCO)c4)cc23)nc(N)n1 (stereo not shown) [A99, 1-(2-amino-6-{5-[1-(2-hydroxyethyl)-1H-pyrazol-4-yl]-1H-pyrrolo[2,3-b]-pyridin-3-yl}pyrimidin-4-yl)-1-phenylethanol]"
